The subject of one assay is Pseudomonas aeruginosa. The experiment in a line: in vitro antibacterial activity (MIC), Pseudomonas aeruginosa. Conditions: gram-negative; 24 hours. The format is cell-based. The method, then:
(§1) In Table I, below, the results of in vitro tests are summarized. For this test each organism is innoculated in a series of test tubes containing nutrient medium and varying concentrations of Antibiotic UK-58,852 to determine the minimal concentration of the compound in mcg./ml. which inhibits the growth of the organism over a period of 24 hours (MIC).

The next assay concerns Escherischia coli. Nature of the assay: in vitro antibacterial activity (MIC), Escherischia coli. The class given is cell-based. Conditions: gram-negative; 24 hours. As to the method:
as §1

In another assay the test system is Streptococcus pyogenes. Nature of the assay: in vitro antibacterial activity (MIC), Streptococcus pyogenes. The format is cell-based. The note with it: strain 020303; 24 hours.
The test system of the next assay is Klebsiella pneumoniae. The experiment in a line: in vitro antibacterial activity (MIC), Klebsiella pneumoniae. The note with it: gram-negative; 24 hours. The format is cell-based. The method, then:
as §1

The subject of another assay is Staphylococcus aureus. Nature of the assay: in vitro antibacterial activity (MIC), Staphylococcus aureus. The class given is cell-based. Conditions: 24 hours. The method, then: as §1
A further assay deals with Serratia marcescens. The experiment in a line: in vitro antibacterial activity (MIC), Serratia marcescens. The note with it: gram-negative; 24 hours. The class given is cell-based. As to the method:
as §1

For a further assay, the system named is Streptococcus faecalis. Nature of the assay: in vitro antibacterial activity (MIC), Streptococcus faecalis. Conditions: strain 02A006; 24 hours. The class given is cell-based.
The subject of assay [1] is Enterobacteriaceae aerogenes. The experiment in a line: in vitro antibacterial activity (MIC), Enterobacteriaceae aerogenes. The format is cell-based. Conditions: gram-negative; 24 hours. The method, then: as §1
Another assay relates to Clostridium perfringens. The format is cell-based. The note with it: strain 10A009; 24 hours.
A further assay deals with Treponema hyodysenteriae. Nature of the assay: in vitro antibacterial activity (MIC), Treponema hyodysenteriae. The format is cell-based. The note with it: strain 94A007; 24 hours.
A further assay has as its system Actinomyces pyogenes. The experiment in a line: in vitro antibacterial activity (MIC), Actinomyces pyogenes. Conditions: strain 14D011; 24 hours. The class given is cell-based.
Assay [2] relates to Actinobacillus pleuropneumoniae. Nature of the assay: in vitro antibacterial activity (MIC), Actinobacillus pleuropneumoniae. The class given is cell-based. Conditions: 24 hours.
The next assay relates to Bacteroides fragilis. Nature of the assay: in vitro antibacterial activity (MIC), Bacteroides fragilis. The format is cell-based. Conditions: strain 78C024; 24 hours.
Another assay deals with Pasteurella multocida. Nature of the assay: in vitro antibacterial activity (MIC), Pasteurella multocida. Conditions: strain 59A006; 24 hours. The class given is cell-based.
Assay [3] concerns Fusobacterium necrophorum. The experiment in a line: in vitro antibacterial activity (MIC), Fusobacterium necrophorum. Conditions: strain 84C004; 24 hours. The class given is cell-based.
Another assay has as its system rumen fluid. Nature of the assay: in vitro rumen technique, propionic acid production. The note with it: 39° C., about 16 hours; for increase in propionic acid production: 10 mcg/ml., separate experiment with CP-70,228; for increase in the production of propionic acid over control: 10 micrograms per milliliter, experiment with UK-58,852.
Another assay concerns E. maxima. Nature of the assay: in vivo anticoccidial activity in chickens, E. maxima. Conditions: diet of chickens, 25 to 150 ppm.
The next assay has as its system Eimeria tenella. Nature of the assay: in vivo anticoccidial activity in chickens, Eimeria tenella. The note with it: for AVERAGE DEGREE OF INFECTION / WEIGHT GAIN (PERCENT): chickens, after six days.
For the next assay, the system named is E. brunetti. The experiment in a line: in vivo anticoccidial activity in chickens, E. brunetti. Conditions: diet of chickens, 25 to 150 ppm.
A further assay has as its system Eimeria acervulina. Nature of the assay: in vivo anticoccidial activity in chickens, Eimeria acervulina. Conditions: for AVERAGE DEGREE OF INFECTION / WEIGHT GAIN (PERCENT): chickens, after five days.
A further assay concerns E. necatrix. The experiment in a line: in vivo anticoccidial activity in chickens, E. necatrix. Conditions: diet of chickens, 25 to 150 ppm.
[4] abbreviates: diet of chickens, 25 to 150 ppm.

A value given as a limit tells only on which side of the number the result lay.

With `COC1CCC(OC2CC(C3OC(C)(OC)C(C)CC3C)OC2C2(C)CCC(C3(C)CCC4(CC(OC)C(C)C(C(C)C5OC(O)(CC(=O)[O-])C(C)C(OC6CCC(OC)C(C)O6)C5OC)O4)O3)O2)OC1C.[Na+]` (centres unmarked) [CP-70,828 Sodium Salt], the MIC (in general, the smallest concentration in the dilution series that meets the test's criterion for growth inhibition) was more than 50 µg/mL in the assay with Pseudomonas aeruginosa; more than 50 µg/mL against Escherischia coli; 3.12 µg/mL in the assay with Streptococcus pyogenes; more than 50 µg/mL in the assay on Klebsiella pneumoniae; 25 µg/mL against Staphylococcus aureus (strain 01A005); 25 µg/mL in the assay on Staphylococcus aureus (strain 01A052). The MIC is 25 µg/mL against Staphylococcus aureus (strain 01A110); 25 µg/mL with Staphylococcus aureus (strain 01A400); more than 50 µg/mL with Serratia marcescens; more than 50 µg/mL with Streptococcus faecalis; more than 50 µg/mL in assay [1].
On to `COC1CCC(OC2CC(C3OC(C)(O)C(C)CC3C)OC2C2(C)CCC(C3(C)CCC4(CC(O)C(C)C(C(C)C5OC(O)(CC(=O)[O-])C(C)C(OC6CCC(OC)C(C)O6)C5OC)O4)O3)O2)OC1C.[Na+]` (centres unmarked) [UK-58,852 (sodium salt)], for which the MIC against Clostridium perfringens is 0.79 µg/mL; against Pseudomonas aeruginosa, more than 50 µg/mL; against Treponema hyodysenteriae, 0.39 µg/mL; with Actinomyces pyogenes, 0.08 µg/mL; in the assay on Escherischia coli it was more than 50 µg/mL; in [2] (strain 44B004) it was more than 25 µg/mL. For the same molecule, the MIC against Streptococcus pyogenes was 0.05 µg/mL; in the assay on Klebsiella pneumoniae, more than 50 µg/mL; against Staphylococcus aureus (strain 01A005) it was 3.12 µg/mL; against Staphylococcus aureus (strain 01A052) it was 3.12 µg/mL; in the assay with Staphylococcus aureus (strain 01A110), 3.12 µg/mL; in the assay with Staphylococcus aureus (strain 01A400) it was 6.25 µg/mL. The MIC against Bacteroides fragilis was 0.10 µg/mL; in the assay on Pasteurella multocida it was more than 200 µg/mL; with Serratia marcescens, more than 50 µg/mL; against Streptococcus faecalis it was more than 50 µg/mL; in assay [1] it was more than 50 µg/mL; in assay [3], more than 25 µg/mL.
Turning to `COC1CCC(OC2CC(C3OC(C)(OC)C(C)CC3C)OC2C2(C)CCC(C3(C)CCC4(CC(O)C(C)C(C(C)C5OC(O)(CC(=O)[O-])C(C)C(OC6CCC(OC)C(C)O6)C5OC)O4)O3)O2)OC1C.[Na+]` (centres unmarked) [CP-70,228 Sodium Salt], the MIC against Pseudomonas aeruginosa is more than 50 µg/mL; with Treponema hyodysenteriae, 1.58 µg/mL; against Actinomyces pyogenes, 0.34 µg/mL; against Escherischia coli, more than 50 µg/mL; in assay [2] (strain 54B004) it was more than 100 µg/mL; with Streptococcus pyogenes it was 0.10 µg/mL. For the same molecule, the MIC with Klebsiella pneumoniae was more than 50 µg/mL; against Staphylococcus aureus (strain 01A005), 3.12 µg/mL; with Staphylococcus aureus (strain 01A052) it was 3.12 µg/mL; against Staphylococcus aureus (strain 01A110) it was 3.12 µg/mL; in the assay on Staphylococcus aureus (strain 01A400), 6.25 µg/mL; against Bacteroides fragilis, 12.5 µg/mL. Moreover, the MIC with Pasteurella multocida is more than 100 µg/mL; against Serratia marcescens, more than 50 µg/mL; with Streptococcus faecalis it was 50 µg/mL; in [1], more than 50 µg/mL; in assay [3], more than 100 µg/mL.
In the case of `CC[C@@H](C(=O)[C@@H](C)[C@@H](O)[C@H](C)[C@@H]1O[C@@H]([C@@H](CC)C(=O)O)CC[C@@H]1C)[C@H]1O[C@]2(C=C[C@@H](O)[C@]3(CC[C@@](C)([C@H]4CC[C@](O)(CC)[C@H](C)O4)O3)O2)[C@H](C)C[C@@H]1C` [salinomycin, reference compound], in the assay on rumen fluid, the “increase in propionic acid production” value is listed as “about 40%” and the “increase in the production of propionic acid over control” value is approximately 88%.
`COC1CCC(OC2CC(C3OC(C)(O)C(C)CC3C)OC2C2(C)CCC(C3(C)CCC4(CC(O)C(C)C(C(C)C5OC(O)(CC(=O)O)C(C)C(OC6CCC(OC)C(C)O6)C5OC)O4)O3)O2)OC1C` (centres unmarked) [UK-58,852]: in the assay with E. maxima, the “controlling infections due to E. maxima” value is reported as “effective”. Moreover, the “AVERAGE DEGREE OF INFECTION” value with Eimeria tenella (25 ppm in feed), in the assay with Eimeria tenella (50 ppm in feed), with Eimeria tenella (75 ppm in feed), with Eimeria tenella (100 ppm in feed), with Eimeria tenella (125 ppm in feed) and in the assay with Eimeria tenella (150 ppm in feed) was 0.0 throughout. Moreover, the “AVERAGE DEGREE OF INFECTION” value with Eimeria acervulina (25 ppm in feed), in the assay with Eimeria acervulina (50 ppm in feed), in the assay with Eimeria acervulina (75 ppm in feed), in the assay with Eimeria acervulina (100 ppm in feed), in the assay on Eimeria acervulina (125 ppm in feed) and in the assay with Eimeria acervulina (150 ppm in feed) was 0.0 each time. The “WEIGHT GAIN (PERCENT)” value was 93% in the assay on Eimeria tenella (25 ppm in feed); 45% with Eimeria tenella (50 ppm in feed); 28% with Eimeria tenella (75 ppm in feed); 8% in the assay on Eimeria tenella (100 ppm in feed); 4% with Eimeria tenella (125 ppm in feed); 0% in the assay on Eimeria tenella (150 ppm in feed). Besides, the “WEIGHT GAIN (PERCENT)” value with Eimeria acervulina (25 ppm in feed) is reported as 98%; in the assay with Eimeria acervulina (50 ppm in feed), 62%; in the assay on Eimeria acervulina (75 ppm in feed) it was 0%; in the assay on Eimeria acervulina (100 ppm in feed) it was 23%; with Eimeria acervulina (125 ppm in feed), 0%; in the assay with Eimeria acervulina (150 ppm in feed) it was 0%. Moreover, the “controlling infections due to Eimeria tenella” value in the assay on Eimeria tenella (setting [4]) is on record as “effective”. The “controlling infections due to E. brunetti” value with E. brunetti is “effective”. Also, the “controlling infections due to E. acervulina” value in the assay on Eimeria acervulina (setting [4]) is “effective”. In the assay with E. necatrix, the “controlling infections due to E. necatrix” value is on record as “effective”. Besides, the “increase in the production of propionic acid over control” value in the assay with rumen fluid was “about 93%”.
Take `COC1CCC(OC2CC(C3OC(C)(OC)C(C)CC3C)OC2C2(C)CCC(C3(C)CCC4(CC(O)C(C)C(C(C)C5OC(O)(CC(=O)O)C(C)C(OC6CCC(OC)C(C)O6)C5OC)O4)O3)O2)OC1C` (centres unmarked) [CP-70,228]: the “AVERAGE DEGREE OF INFECTION” value with Eimeria tenella (25 ppm in feed) is listed as 2.7; in the assay on Eimeria tenella (50 ppm in feed) it was 1.3; in the assay on Eimeria tenella (75 ppm in feed), 0.3; with Eimeria tenella (100 ppm in feed), 0.0; in the assay with Eimeria acervulina (25 ppm in feed) it was 1.2; with Eimeria acervulina (50 ppm in feed), 0.0. Moreover, the “AVERAGE DEGREE OF INFECTION” value in the assay on Eimeria acervulina (75 ppm in feed) and in the assay with Eimeria acervulina (100 ppm in feed) was 0.0 throughout. Also, the “WEIGHT GAIN (PERCENT)” value with Eimeria tenella (25 ppm in feed) turned out to be 80%; in the assay with Eimeria tenella (50 ppm in feed), 103%; with Eimeria tenella (75 ppm in feed), 63%; with Eimeria tenella (100 ppm in feed), 95%; in the assay on Eimeria acervulina (25 ppm in feed), 40%; in the assay on Eimeria acervulina (50 ppm in feed), 70%. In addition, the “WEIGHT GAIN (PERCENT)” value in the assay on Eimeria acervulina (75 ppm in feed) and in the assay on Eimeria acervulina (100 ppm in feed) was 100% each time. Also, the “increase in propionic acid production” value in the assay with rumen fluid is listed as “about 30%”.

The record behind these values is patent US5100785A, “Polycyclic ether antibiotic” (Pfizer Inc., priority 1984, dated 1992).
